“Also recorded” adds a separate entry of the source. Where a SMILES comes first, the peptide text is derived from it.
Columns and labels:
[1] = tested on: mice with myocardial infarction; test: Myocardial infarction model in mice, UM206 by osmotic minipump; assay type: in vivo
Method: All animals were subjected to extensive echocardiography studies for the assessment of myocardial infarct size, LV cavity dimensions and ventricular function. Echocardiography examination was performed under 2% isofluorane. Echocardiograms were recorded with Philips Sonos 5500 ultrasound system (Philips, Eindhoven, the Netherlands) using a 20-MHz linear probe.
The animals were anaesthetized with urethane ([…] body weight, i.p., Sigma-Aldrich) followed by intubation and connected to a rodent ventilator (Hugo Sachs, March-Hugstetten, Germany). Body temperature was maintained at 37° C. The mice were then allowed to stabilize prior to hemodynamic measurements. A high-fidelity catheter tip micromanometer (Mikro-tip1.4F, SPR-671; Millar Instruments, Houston TX, USA) was inserted through the right carotid artery into the left ventricular cavity. Ventricular pressure was measured. Maximal positive and negative pressure development (+dP/dt and −dP/dt) and heart rate were determined on a beat-to-beat basis. The heart was then stimulated by an i.v. ramp-infusion of dobutamine (Sigma-Aldrich) using a micro-injection pump (Model 200 Series, KdScientific, Boston, Mass., USA).
One-half of the hearts of the mice was embedded in paraffin and cut in 4 μm sections. The paraffin sections were rehydrated and washed in PBS. One section was stained with AZAN, allowing an accurate determination of the infarct size. To visualize the myofibroblasts in the infarct area, the sections were incubated with an antibody directed against a-smooth muscle actin (Sigma-Aldrich), followed by incubation with the peroxidase-conjugated secondary antibody (Vector laboratories). Nuclei were visualized by hematoxylin. Photos were taken with a Leica (CTR500, 63x/0.85) camera and analyzed with the Quantimet program (QWin/QGo). An examiner blinded to the groups of the animals obtained all measurements. For the experiments with Rhodamine-labeled UM206, frozen sections (4 μm) of mouse kidney and small intestine were used.

human Fzd-1 = biological target: T1, human Fzd-1 (Homo sapiens, UniProt Q9UP38); test: Antagonism of Wnt3a activation of human Fzd-1 (data not shown); assay type: cell-based
T1 construct: expressed in transfected cells
T1 sequence (Q9UP38 70-647): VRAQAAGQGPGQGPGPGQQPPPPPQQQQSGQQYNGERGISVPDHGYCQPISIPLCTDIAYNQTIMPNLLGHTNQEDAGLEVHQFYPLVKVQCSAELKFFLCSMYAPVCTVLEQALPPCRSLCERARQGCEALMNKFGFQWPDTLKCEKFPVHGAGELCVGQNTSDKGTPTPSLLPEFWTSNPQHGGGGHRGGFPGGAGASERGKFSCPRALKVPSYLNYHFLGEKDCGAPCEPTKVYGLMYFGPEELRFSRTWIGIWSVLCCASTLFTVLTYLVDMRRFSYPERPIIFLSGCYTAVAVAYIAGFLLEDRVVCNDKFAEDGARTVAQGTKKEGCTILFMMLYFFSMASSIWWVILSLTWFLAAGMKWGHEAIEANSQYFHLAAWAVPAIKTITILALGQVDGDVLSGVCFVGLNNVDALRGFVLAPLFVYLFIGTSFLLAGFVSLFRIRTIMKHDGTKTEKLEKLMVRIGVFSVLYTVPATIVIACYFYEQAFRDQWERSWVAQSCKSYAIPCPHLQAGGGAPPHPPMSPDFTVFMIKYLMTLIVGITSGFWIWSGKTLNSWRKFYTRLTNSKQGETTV
Description: (§1) In FIG. 3, Panel E, the efficacy of UM206 to block the Wnt3a-induced activation of luciferase activity in HEK293 superTOPflash cells transfected with different Fzds is shown.

frizzled-1 (rFzd-1) = biological target: T2, frizzled-1 (rFzd-1) (Rattus norvegicus, UniProt Q08463); test: Activity assay: Wnt3a-induced luciferase (superTOPflash) in HEK cells transfected with frizzled-1; assay type: cell-based; conditions: peptide 1.10^−8 M
T2 construct: expressed in transfected cells; host or cells: HEK293 superTOPflash (human embryonic kidney), transient, pcDNA3.1/hygro
T2 sequence (Q08463 69-641): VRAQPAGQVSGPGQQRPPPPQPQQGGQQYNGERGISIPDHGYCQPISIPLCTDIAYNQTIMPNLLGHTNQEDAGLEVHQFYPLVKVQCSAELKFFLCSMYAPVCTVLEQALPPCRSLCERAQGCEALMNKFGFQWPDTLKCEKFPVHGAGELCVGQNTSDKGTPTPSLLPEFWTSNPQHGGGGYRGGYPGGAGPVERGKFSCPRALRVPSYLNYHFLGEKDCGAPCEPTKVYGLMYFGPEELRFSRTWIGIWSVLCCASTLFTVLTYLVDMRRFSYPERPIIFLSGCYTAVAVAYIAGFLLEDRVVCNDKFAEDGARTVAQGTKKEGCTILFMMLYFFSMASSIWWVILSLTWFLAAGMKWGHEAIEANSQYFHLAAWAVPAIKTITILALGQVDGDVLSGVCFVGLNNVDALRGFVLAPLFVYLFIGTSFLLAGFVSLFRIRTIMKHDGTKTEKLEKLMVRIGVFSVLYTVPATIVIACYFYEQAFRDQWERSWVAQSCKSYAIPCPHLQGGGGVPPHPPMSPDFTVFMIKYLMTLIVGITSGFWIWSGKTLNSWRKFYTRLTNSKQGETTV
Method: Human embryonic kidney (HEK) cells were used for screening. These cells have a luciferase construct stably transfected into the genome (see FIG. 2A), such that when the frizzled receptor is activated and β-catenin is increased, the luciferase is activated by transcription and light can be measured.
The peptides were tested by transfecting the frizzled-1 or the frizzled-2 receptor and addition of UM206(S-S) to the cell culture. For testing antagonistic activity, UM206 was added and the natural ligand Wnt3a was added, which is a natural stimulus for the canonical pathway.
Day 2: Transfection 12-well plates • heat Fugene6 and DNA 15 minutes at RT • 2 ml serum-free medium in tube • add 3μl fugene • add 2 μg DNA • incubate 30 minutes at RT • wash with PBS • add 50 μtransfectiemix • add 1 ml antibiotica-free medium
Day 3: Add conditioned medium or UM206
Day 4: Luciferase activity measurements • remove medium • wash with PBS • add 500 μl ⅕ lysisbuffer • shake for 60 minutes • centrifuge in tube • 20 μl lysaat and 50 μl luciferase in new tube for measurement • vortex • measure
To determine the inhibitory constant of UM206-8, HEK293-superTOPflash cells were transfected with either rFzd-1 or -2 and incubated with Wnt3a (10^−9M) in the presence of increasing concentrations of either of the peptides (FIG. 15). For UM206, a biphasic inhibition curve was observed that was best fitted with a two-binding-state model.
The cell lines were cultured in 75 cm^2 culture flasks (Corning, Schiphol, the Netherlands) in Dulbeco's modified essential medium with L-glutamine (2 mM), 10% fetal calf serum (Invitrogen, Merelbeke, Belgium), and 1% gentamycin (Sigma-Aldrich, Zwijndrecht, The Netherlands). Before starting the experiment, the cell lines were treated with plasmocin 25 μg/ml (Invivogen, Toulose, France) and tested with a mycoalert mycoplasma detection kit (Lonza, Rockland Me., USA). Cells were transiently transfected with Fugene6 (Roche, Indianapolis Ind., USA) with plasmid DNA, pcDNA3.1/hygro (Invitrogen) with frizzled-1/2/4 or Wnts 3a-5a or with pcDNA3.0 (Invitrogen) containing the β-catenin or frizzled-5 sequence. After transfection, the cells were cultured for 24 hours in conditioned medium, collected from the cultured L-cells, L-cells with Wnt3a or 5a (Invitrogen). At the same moment the antagonist was added.

mouse Fzd-1 = biological target: T3, mouse Fzd-1 (Mus musculus, UniProt O70421); test: Antagonism of Wnt3a activation of mouse Fzd-1 (data not shown); assay type: cell-based
T3 construct: expressed in transfected cells
T3 sequence (O70421 69-642): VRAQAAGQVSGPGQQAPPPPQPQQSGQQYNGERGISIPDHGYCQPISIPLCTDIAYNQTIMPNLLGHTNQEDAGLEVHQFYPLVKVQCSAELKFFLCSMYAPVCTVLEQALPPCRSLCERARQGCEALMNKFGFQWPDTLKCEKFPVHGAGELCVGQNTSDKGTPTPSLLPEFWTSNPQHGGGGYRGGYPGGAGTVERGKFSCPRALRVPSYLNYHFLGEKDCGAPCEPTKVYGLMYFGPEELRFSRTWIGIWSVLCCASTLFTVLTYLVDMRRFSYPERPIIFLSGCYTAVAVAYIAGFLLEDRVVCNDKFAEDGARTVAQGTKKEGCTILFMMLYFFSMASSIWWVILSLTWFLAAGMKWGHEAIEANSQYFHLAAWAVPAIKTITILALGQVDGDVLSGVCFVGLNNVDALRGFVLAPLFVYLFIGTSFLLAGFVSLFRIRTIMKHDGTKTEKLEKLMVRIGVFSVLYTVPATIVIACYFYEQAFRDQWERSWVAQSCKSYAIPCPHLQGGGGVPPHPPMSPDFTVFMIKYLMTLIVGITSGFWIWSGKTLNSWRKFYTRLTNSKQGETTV
Description: as §1

[2] = mouse, in vivo
Method: UM206 was injected into the femoral artery of Swiss mice (concentration of 10^−9 M). Blood was sampled at different time points in the femoral vein. On the y-axis, the concentration of UM206 in the plasma is shown. This is determined with HPLC and the area under the peak is calculated and shown on the y-axis. All values were corrected for the baseline value.
In order to determine the pharmacokinetic properties of UM206, we injected 15 ng of the compound into the tail vein of mice and monitored the concentration in the blood at different time points.
Male Swiss mice were used (10-12 weeks of age, Charles River, Maastricht, The Netherlands).
Blood samples were collected from the animals for the pharmacokinetics and after 14 to 35 days treatment, to determine the concentration of UM206. Blood was centrifuged and the plasma was treated with 1% TFA.

[3] = five weeks treatment, vs saline

Structure (SMILES): CSCC[C@H](NC(=O)CNC(=O)[C@H](CCC(=O)O)NC(=O)[C@H](CO)NC(=O)[C@@H](NC(=O)[C@H](CCCCN)NC(=O)[C@H](CC(N)=O)NC(=O)[C@H](CS)NC(C)=O)[C@@H](C)O)C(=O)N[C@@H](CC(=O)O)C(=O)NCC(=O)N[C@@H](CS)C(=O)N[C@@H](CCC(=O)O)C(=O)N[C@@H](CC(C)C)C(N)=O [UM206, Ac-Cys-Asn-Lys-Thr-Ser-Glu-Gly-Met-Asp-Gly-Cys-Glu-Leu-NH2] (Ac-CNKTSEGMDGCEL-NH2)
- tangents on the pressure time curve (dP/dt) ([1]; Millar catheter in left ventricle, vs saline): significantly steeper
- change of ejection fraction (echocardiography) ([1]; UM206-treated vs saline): doubling
- reduction in end diastolic volume of the left ventricle ([1]; UM206-treated vs saline): 40%
- AoD ([1]; echocardiography, AVG): 0.18 cm
- EDV_L ([1]; echocardiography, AVG): 0.132 cm^3
- EF_L ([1]; echocardiography, AVG): 31.4%
- ESV_L ([1]; echocardiography, AVG): 0.090 cm^3
- FS ([1]; echocardiography, AVG): 13.20%
- IVS anterior ([1]; echocardiography, AVG): 8.10%
- IVSd anterior wall ([1]; echocardiography, AVG): 0.07 cm
- IVSd posterior wall ([1]; echocardiography, AVG): 0.09 cm
- IVSs anterior wall ([1]; echocardiography, AVG): 0.07 cm
- IVSs posterior wall ([1]; echocardiography, AVG): 0.14 cm
- LVAs ([1]; echocardiography, AVG): 0.30 cm^2
- LVIDd ([1]; echocardiography, AVG): 0.59 cm
- LVIDs ([1]; echocardiography, AVG): 0.52 cm
- SV_L ([1]; echocardiography, AVG): 0.041 cm^3
- LVLd ([1]; echocardiography, AVG, first listing (r8)): 0.91 cm
- LVLs ([1]; echocardiography, AVG, first listing (r10)): 0.86 cm
- LVLd ([1]; echocardiography, AVG, second listing (r12)): 0.95 cm
- LVLs ([1]; echocardiography, AVG, second listing (r13)): 0.89 cm
- LVAd ([1]; echocardiography, mice post-MI, AVG): 0.38 cm^2
- mortality / survival after MI ([1]; five weeks after MI, 6 microgram/kg/day minipump, saline 35% died): not a single mouse had died; also recorded: completely prevented the mortality
- wet lung weight of surviving saline-treated mice higher than in UM206-treated mice ([1]; five weeks post-MI): 40%
- blood vessels in the infarct area [1, 3]: increased amount of blood vessels
- collagen levels in the infarct area [1, 3]: reduced collagen levels
- a-SMA levels in infarcts (qPCR, Western blotting) ([1]; five-week-old infarcts, vs saline): significantly higher
- Diastolic pressure ([1]; hemodynamic measurements, AVG): 1.27 mmHg
- Left ventricular pressure ([1]; hemodynamic measurements, AVG): 10.14 mmHg
- Maximum negative slope ([1]; hemodynamic measurements, AVG): −2542.08 mmHg/sec
- Maximum negative slope/pressure ([1]; hemodynamic measurements, AVG): 32.84 s⁻¹
- Maximum positive slope ([1]; hemodynamic measurements, AVG): 5343.84 mmHg/sec
- Maximum positive slope/pressure ([1]; hemodynamic measurements, AVG): 69.13 s⁻¹
- Pressure of negative slope ([1]; hemodynamic measurements, AVG): −9.44 mmHg
- Pressure of positive slope ([1]; hemodynamic measurements, AVG): 17.78 mmHg
- Systolic pressure ([1]; hemodynamic measurements, AVG): 27.93 mmHg
- Heart rate ([1]; hemodynamic measurements, mean of 26 animals): 106.32 beats/min
- amount of myofibroblasts ([1]; in vivo model of myocardial infarction, in comparison to 4%): 20%
- adverse effects of chronic administration ([1]; mouse, in vivo): did not observe any adverse effects
- effects on other organs known to contain Fzd-2, including kidney and small intestine ([1]; mouse, in vivo): did not observe any effects
- myofibroblast numbers in the infarct area relative to saline-treated mice ([1]; two weeks post-MI): more than four-fold; also recorded: four-fold
- infarct area size ([1]; vs saline-treated mice, 2 and 5 weeks after MI): significantly smaller
- thickness of the infarct area ([1]; vs saline, both time points): significantly thicker
- Antagonizing activation of human Fzd-1 by Wnt3a (human Fzd-1): fully effective
- Blocking of Wnt3a-induced luciferase activity, rFzd-1 (frizzled-1 (rFzd-1)): blocked almost completely; also recorded: abolished the induction of luciferase activity almost completely
- Antagonizing activation of mouse Fzd-1 by Wnt3a (mouse Fzd-1): fully effective
- time until steady state is reached [2]: ~10 h
